Experiments:
[1] = tested on: APP23 mice; settings: earlier study [15]; oral Am80 0.5 mg/kg/d for 14 weeks; 5-month-old APP23 mice; cited from earlier work
[2] = tested on: CD36; test: Immunoblot of CD36 in rat primary microglia; type: cell-based; settings: 5 μM each, 48 h; relative to vehicle-treated cells
Description: Primary microglia (type 1) were harvested from primary mixed glial cell cultures prepared from neonatal Wistar rat pups, as previously reported. Mouse microglial cell line MG5 and mouse glial cell line A1 were maintained as previously described. Mouse neuroblastoma cell line N1E-115 and Neuro 2a (American Type Culture Collection, Manassas, Va., USA) were maintained in Dulbecco's modified Eagle's medium (DMEM) supplemented with 10% fetal bovine serum (FBS), 20 U/ml penicillin (Invitrogen, Gaithersburg, Md., USA), and 20 μg/ml streptomycin (Invitrogen). Primary rat microglia were treated with Am80 (5 μM) and/or HX630 (5 μM) in the presence and absence of GW9662 (10 μM) for 48 h in Eagle's MEM supplemented with 10% FBS and 0.2% glucose. MG5 cells and A1 cells were treated with Am80 (5 μM) and/or HX630 (5 μM) for 48 h in DMEM containing 10% FBS. […]
Rat primary microglia and mouse microglial MG5 cells (5×10^6 cells per 100-mm dish) were homogenized in RIPA buffer [10 mM Hepes-NaOH (pH 7.4) containing 150 mM NaCl, 1 mM EDTA, 1% Triton X-100, 0.5% sodium deoxycholate, 0.1% SDS, 1 mM PMSF, 1 mg/ml leupeptin. […] Bound horseradish peroxidase-labeled antibodies were then detected via chemiluminescence (an ECL kit; Pierce, Rockford, Ill., USA). Protein concentrations were determined with the BCA Protein Assay Reagent (Pierce) and Bradford Protein Assay Reagent (Pierce).

[3] = tested on: rat primary microglia; test: Clearance of 125I-labeled oligomeric Aβ1-42 by rat primary microglia; type: cell-based; settings: 5 μM each 48 h, then 6 h with 125I-o-Aβ1-42 1 μg/ml, vs vehicle-treated cells
Description: Primary microglia (type 1) were harvested from primary mixed glial cell cultures prepared from neonatal Wistar rat pups, as previously reported. Mouse microglial cell line MG5 and mouse glial cell line A1 were maintained as previously described. Mouse neuroblastoma cell line N1E-115 and Neuro 2a (American Type Culture Collection, Manassas, Va., USA) were maintained in Dulbecco's modified Eagle's medium (DMEM) supplemented with 10% fetal bovine serum (FBS), 20 U/ml penicillin (Invitrogen, Gaithersburg, Md., USA), and 20 μg/ml streptomycin (Invitrogen). Primary rat microglia were treated with Am80 (5 μM) and/or HX630 (5 μM) in the presence and absence of GW9662 (10 μM) for 48 h in Eagle's MEM supplemented with 10% FBS and 0.2% glucose. MG5 cells and A1 cells were treated with Am80 (5 μM) and/or HX630 (5 μM) for 48 h in DMEM containing 10% FBS. N1E-115 cells were treated with Am80 (5 μM) and/or HX630 (5 μM) for 5 days in DMEM containing 2% FBS.
^125I-Labeled oligomeric Aβ1-42 (o-Aβ1-42) was prepared as described. Cells were cultured in 24-well plates for 48 h in Eagle's MEM supplemented with 10% FBS in the presence or absence of Am80 (5 μM) and HX630 (5 μM). After the 48-h treatment, the cells were washed twice with labeling medium (DMEM containing 3% BSA) and then incubated with ^125I-labeled o-Aβ1-42 for 6 h at 37° C. Following the 6-h incubation, medium was removed from each well, and soluble radioactivity in TCA (degraded and extracellularly released peptide fragments) was determined as an index of Aβ degradation in the medium as described previously. The Aβ degradation activity may thus include both receptor-mediated phagocytic activity and extracellular protease-mediated degradation. Cells were washed three times with PBS, then lysed with 0.4 ml of 0.1 M NaOH for 30 min at 37° C., and cell-associated (including cell-incorporated) radioactivity and cell proteins were determined with an autogamma counter and the BCA Protein Assay Reagent (Pierce), respectively. We could not determine the activity of IDE-dependent degradation in this medium, because the incubation medium was replaced with labeling medium prior to incubation with ^[…].

## CC1(C)CCC(C)(C)c2cc(NC(=O)c3ccc(C(=O)O)cc3)ccc21 [Am80, 4-{(5,6,7,8-tetrahydro-5,5,8,8-tetramethyl-2-naphthalenyl)carbamoyl}benzoic acid]
[1]
  behavioral benefits: did not detect behavioral benefits

## CN1c2ccccc2N=C(c2ccc(C(=O)O)cc2)c2cc3c(cc21)C(C)(C)CCC3(C)C [HX630, 4-[5H-2,3-(2,5dimethyl-2,5-hexano)-5-methyldibenzo[b,e]-diazepin-11-yl]benzoic acid]
[2]
  CD36 expression in rat primary microglia: 1.3 fold
[3]
  degradation activity towards 125I-labeled oligomeric Aβ1-42: increased

Source: patent US9861640B2, “Medicament for treatment of Alzheimer's disease” (KEMPHYS LTD., priority 2013, dated 2018)
